Laboratory results from patent publication US20250360235A1, “RADI[…] AND METHOD FOR RADIOLABELLING” (Telix Innovations SA, priority 2024, published 2025).

Assay: Radiochemical purity by iTLC over time after radiolabelling
Format: physicochemical
Procedure: Table 1 to Table 5 show the results of various radiolabelling experiments on radiochemical purity and the chelation yield. The radiolabelling experiments in the tables are carried out as described in: • Example 1 for when the gallium-68 source is GE Liquid target generator and EZAG GalliaPharm generator; • Example 2 for when the gallium-68 source is IRE Galli Eo generator; • Example 3 for when the gallium-68 source is GE solid target generator;
However, the experiments were carried out with the amount of ascorbic acid as indicated in the Tables 1 to 5, and the activity as indicated in the Tables 1 to 5. Radiochemical purities were measured at various times (T0, T1, T4, T6) after the radiolabelled experiments have been conducted.
The kits of Example 1, Example 2 or Example 3, with amounts of ascorbic acid as set out in Table 7 were used in the experiments for the ascorbic acid bracketing matrix. Three strengths of [^68Ga]Ga-PSMA-11 will be tested, i.e. 50 mCi/ml, 7 mCi/ml and 1 mCi/ml. Radiochemical purity was determined at different time points (TO, T1, T4 or T6), as set out in Table 7.

[1] = 15 mg ascorbic acid, 10.0-18.4 mCi, 0.95-1.77 mCi/mL, 1 × EZAG GalliaPharm, 2 × IRE Galli Eo, average of 3, T1 (1 h)
[2] = 15 mg ascorbic acid, 10.0-18.4 mCi, 0.95-1.77 mCi/mL, 1 × EZAG GalliaPharm, 2 × IRE Galli Eo, n=3, T0
[3] = 15 mg ascorbic acid, 10.0-18.4 mCi, 0.95-1.77 mCi/mL, 1 × EZAG GalliaPharm, 2 × IRE Galli Eo, n=3, T1 (1 h)
[4] = 15 mg ascorbic acid, 23.7-47.6 mCi, 2.26-4.53 mCi/mL, 1 × EZAG GalliaPharm, 2 × IRE Galli Eo, average of 3, T0
[5] = 15 mg ascorbic acid, 23.7-47.6 mCi, 2.26-4.53 mCi/mL, 1 × EZAG GalliaPharm, 2 × IRE Galli Eo, average of 3, T4 (4 h)
[6] = 15 mg ascorbic acid, 23.7-47.6 mCi, 2.26-4.53 mCi/mL, 1 × EZAG GalliaPharm, 2 × IRE Galli Eo, n=3, T0
[7] = 15 mg ascorbic acid, 23.7-47.6 mCi, 2.26-4.53 mCi/mL, 1 × EZAG GalliaPharm, 2 × IRE Galli Eo, n=3, T4 (4 h)
[8] = 20 mg ascorbic acid, 514-544 mCi, 48.3-51.9 mCi/mL, GE Solid Target, average of 2, T0
[9] = 20 mg ascorbic acid, 514-544 mCi, 48.3-51.9 mCi/mL, GE Solid Target, average of 2, T6 (6 h)
[10] = 20 mg ascorbic acid, 514-544 mCi, 48.3-51.9 mCi/mL, GE Solid Target, n=2, T0
[11] = 20 mg ascorbic acid, 514-544 mCi, 48.3-51.9 mCi/mL, GE Solid Target, n=2, T6 (6 h)
[12] = 25 mg ascorbic acid, 19.5-20.0 mCi, 1.85-1.90 mCi/mL, EZAG GalliaPharm, average of 2, T0
[13] = 25 mg ascorbic acid, 19.5-20.0 mCi, 1.85-1.90 mCi/mL, EZAG GalliaPharm, average of 2, T1 (1 h)
[14] = 25 mg ascorbic acid, 19.5-20.0 mCi, 1.85-1.90 mCi/mL, EZAG GalliaPharm, n=2, T0
[15] = 25 mg ascorbic acid, 19.5-20.0 mCi, 1.85-1.90 mCi/mL, EZAG GalliaPharm, n=2, T1 (1 h)
[16] = 25 mg ascorbic acid, 23.3-24 mCi, 2.22-2.28 mCi/mL, IRE Galli Eo, average of 2, T0
[17] = 25 mg ascorbic acid, 23.3-24 mCi, 2.22-2.28 mCi/mL, IRE Galli Eo, average of 2, T4 (4 h)
[18] = 25 mg ascorbic acid, 23.3-24 mCi, 2.22-2.28 mCi/mL, IRE Galli Eo, n=2, T0
[19] = 25 mg ascorbic acid, 23.3-24 mCi, 2.22-2.28 mCi/mL, IRE Galli Eo, n=2, T4 (4 h)
[20] = 25 mg ascorbic acid, 46.0-46.1 mCi, 4.38-4.39 mCi/mL, EZAG GalliaPharm, average of 2, T0

O=C([O-])CN(CCN(CC(=O)[O-])Cc1cc(CCC(=O)NCCCCCC(=O)NCCCC[C@H](NC(=O)N[C@@H](CCC(=O)O)C(=O)O)C(=O)O)ccc1[O-])Cc1cc(CCC(=O)O)ccc1[O-].[68Ga+3].[OH3+] [[^68Ga]PSMA-11, gallium-68 radiolabelled Glu-urea-Lys-HBED-CC (gozetotide or PSMA-11)]
Radiochemical Purity (iTLC) Ga-68 PSMA-11 (%) (15 mg ascorbic acid, 10.0-18.4 mCi, 0.95-1.77 mCi/mL, 1 × EZAG GalliaPharm, 2 × IRE Galli Eo, average of 3, T0): 100%
Radiochemical Purity (iTLC) Free and Colloidal Ga-68 (%) [1]: 0%
Radiochemical Purity (iTLC) Ga-68 PSMA-11 (%) [1]: 100%
Radiochemical Purity (iTLC) Free and Colloidal Ga-68 (%) [2]: C (C = conforms to specifications)
Radiochemical Purity (iTLC) Ga-68 PSMA-11 (%) [2]: C (C = conforms to specifications)
Radiochemical Purity (iTLC) Free and Colloidal Ga-68 (%) [3]: C (C = conforms to specifications)
Radiochemical Purity (iTLC) Ga-68 PSMA-11 (%) [3]: C (C = conforms to specifications)
Radiochemical Purity (iTLC) Free and Colloidal Ga-68 (%) [4]: 0%
Radiochemical Purity (iTLC) Ga-68 PSMA-11 (%) [4]: 100%
Radiochemical Purity (iTLC) Free and Colloidal Ga-68 (%) [5]: 0%
Radiochemical Purity (iTLC) Ga-68 PSMA-11 (%) [5]: 100%
Radiochemical Purity (iTLC) Free and Colloidal Ga-68 (%) [6]: C (C = conforms to specifications)
Radiochemical Purity (iTLC) Ga-68 PSMA-11 (%) [6]: C (C = conforms to specifications)
Radiochemical Purity (iTLC) Free and Colloidal Ga-68 (%) [7]: C (C = conforms to specifications)
Radiochemical Purity (iTLC) Ga-68 PSMA-11 (%) [7]: C (C = conforms to specifications)
Radiochemical Purity (iTLC) Free and Colloidal Ga-68 (%) [8]: 3%
Radiochemical Purity (iTLC) Ga-68 PSMA-11 (%) [8]: 97%
Radiochemical Purity (iTLC) Free and Colloidal Ga-68 (%) [9]: 2%
Radiochemical Purity (iTLC) Ga-68 PSMA-11 (%) [9]: 98%
Radiochemical Purity (iTLC) Free and Colloidal Ga-68 (%) [10]: C (C = conforms to specifications)
Radiochemical Purity (iTLC) Ga-68 PSMA-11 (%) [10]: C (C = conforms to specifications)
Radiochemical Purity (iTLC) Free and Colloidal Ga-68 (%) [11]: C (C = conforms to specifications)
Radiochemical Purity (iTLC) Ga-68 PSMA-11 (%) [11]: C (C = conforms to specifications)
Radiochemical Purity (iTLC) Free and Colloidal Ga-68 (%) [12]: 2%
Radiochemical Purity (iTLC) Ga-68 PSMA-11 (%) [12]: 98%
Radiochemical Purity (iTLC) Free and Colloidal Ga-68 (%) [13]: 0%
Radiochemical Purity (iTLC) Ga-68 PSMA-11 (%) [13]: 100%
Radiochemical Purity (iTLC) Free and Colloidal Ga-68 (%) [14]: C (C = all results conform to specifications)
Radiochemical Purity (iTLC) Ga-68 PSMA-11 (%) [14]: C (C = all results conform to specifications)
Radiochemical Purity (iTLC) Free and Colloidal Ga-68 (%) [15]: C (C = all results conform to specifications)
Radiochemical Purity (iTLC) Ga-68 PSMA-11 (%) [15]: C (C = all results conform to specifications)
Radiochemical Purity (iTLC) Free and Colloidal Ga-68 (%) [16]: 1%
Radiochemical Purity (iTLC) Ga-68 PSMA-11 (%) [16]: 99%
Radiochemical Purity (iTLC) Free and Colloidal Ga-68 (%) [17]: 0%
Radiochemical Purity (iTLC) Ga-68 PSMA-11 (%) [17]: 100%
Radiochemical Purity (iTLC) Free and Colloidal Ga-68 (%) [18]: C (C = all results conform to specifications)
Radiochemical Purity (iTLC) Ga-68 PSMA-11 (%) [18]: C (C = all results conform to specifications)
Radiochemical Purity (iTLC) Free and Colloidal Ga-68 (%) [19]: C (C = all results conform to specifications)
Radiochemical Purity (iTLC) Ga-68 PSMA-11 (%) [19]: C (C = all results conform to specifications)
Radiochemical Purity (iTLC) Free and Colloidal Ga-68 (%) [20]: 0%
Radiochemical Purity (iTLC) Ga-68 PSMA-11 (%) [20]: 100%
